Results as given in patent US5187165A, “Memory enhancing and analgesic 1,2,3a,8,8a-hexahydro-3a,8(and 1,3a,8)-di(and tri)methylpyrrolo[2,3-b]indoles” (priority 1988, dated 1993).

Legend:
[1] = biological target: T1, acetylcholinesterase (Brain AChE) (Rattus norvegicus, UniProt P37136); experiment: In Vitro Inhibition of Acetylcholinesterase Activity in Rat Striatum; assay type: biochemical
T1 construct: corpora striata dissected free, weighed and homogenized in 19 volumes; from tissue; host or cells: corpora striata of male Wistar rats, crude homogenate in phosphate buffer
T1 sequence (P37136 32-614): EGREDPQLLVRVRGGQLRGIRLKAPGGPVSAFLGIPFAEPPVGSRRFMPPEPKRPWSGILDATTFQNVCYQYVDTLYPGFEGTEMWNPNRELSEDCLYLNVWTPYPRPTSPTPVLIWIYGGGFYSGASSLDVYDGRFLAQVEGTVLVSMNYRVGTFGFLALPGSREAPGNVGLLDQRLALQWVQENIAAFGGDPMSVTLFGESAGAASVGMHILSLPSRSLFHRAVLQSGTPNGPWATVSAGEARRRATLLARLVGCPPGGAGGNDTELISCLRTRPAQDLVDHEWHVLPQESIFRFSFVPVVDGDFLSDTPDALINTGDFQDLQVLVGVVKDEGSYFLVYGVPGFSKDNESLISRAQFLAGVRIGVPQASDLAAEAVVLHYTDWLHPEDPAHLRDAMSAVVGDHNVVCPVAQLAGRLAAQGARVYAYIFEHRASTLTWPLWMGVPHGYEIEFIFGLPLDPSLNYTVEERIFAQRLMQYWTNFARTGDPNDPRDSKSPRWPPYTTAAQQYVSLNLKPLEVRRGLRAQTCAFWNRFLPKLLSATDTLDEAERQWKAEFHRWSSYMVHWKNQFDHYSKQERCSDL
Excerpt: (§1) Cholinesterases are found throughout the body, both in the brain and in serum. However, only brain acetylcholinesterase (AChE) distribution is correlated with central cholinergic innervation. […] We have determined in vitro inhibition of acetylcholinesterase activity in rat striatum and in vitro inhibition of butrylcholinesterase activity in human serum according to the methods described below.
The method described below was used in this invention for assaying cholinesterase activity. This is a modification of the method of Ellman et al., Biochem. Pharmacol. 7, 98 (1961).
1. 0.05M Phosphate buffer, pH 7.2
(§2) (a) 9.9 mg 5,5-dithiobisnitrobenzoic acid (DTNB) (0.25 mM)
(b) 99 mg s-acetylthiocholine chloride (5 mM)
(§3) (c) q.s. to 100 ml with 0.05M phosphate buffer, pH 7.2 (reagent 1)
Male Wistar rats are decapitated, brains rapidly removed, corpora striata dissected free, weighed and homogenized in 19 volumes (approximately 7 mg protein/ml) of 0.05M phosphate buffer, pH 7.2 using a Potter-Elvehjem homogenizer. A 50 microliter aliquot of the homogenate is added to 50 microliter vehicle of various concentrations of the test drug and preincubated for 10 minutes at room temperature.
1. For routine IC50 determinations the Abbott Bichromatic Analyzer, ABA-100, is used to determine acetylcholinesterase activity.
Incubation temperature: 30° C.
Following the 10 minute preincubation of the tissue (enzyme) with the inhibitor, the samples are mixed with the substrate chromogen buffer by the ABA-100. Using the indicated instrument settings the ABA-100 automatically reads the color reaction and prints out the results in enzyme units after 15 minutes.
2. The enzyme activity can also be measured with Gilford 250 spectrophotometer. This method is used for more accurate kinetic measurments.
Reagents are added to the reference and sample side of a split curvette as follows.
The uninhibited activity of the enzyme (tissue homogenate) is first determined. Test drugs are made up in a suitable solvent and added in suitable dilutions to the buffer vehicle. The reaction rate is determined by the slope of the recorded absorbance change. The actual rate (moles/liter/min) can be calculated as described in the following formula
rate(moles/liter/min)=slope/(1.36×10^4).

[2] = biological target: T2, butyrylcholinesterase (Serum AChE) (Homo sapiens, UniProt P06276); experiment: In Vitro Inhibition of Butyrylcholinesterase Activity in Human Serum; assay type: biochemical
T2 construct: A vial of lyophilized human serum; purchased Biodynamics, Houston, Tex; (Precilip); host or cells: lyophilized human serum, reconstituted in water; enzyme not purified
Excerpt: as §1
This assay can be used in conjunction with the acetylcholinesterase assay to determine the enzyme selectivity of various chloinesterase inhibitors.
Butyrylcholinesterase (BChE), which is sometimes called pseudocholinesterase, preferentially hydrolyzes butyrylcholine. This enzyme is found in the highest amounts in serum, but its physiological role is not known.
as §2
(b) 113 mg s-butyrylthiochloine chloride (5 mM)
as §3
A vial of lyophilized human serum (Precilip, Biodynamics, Houston, Tex. is reconstituted in 3 ml of distilled water. A 10 microliter aliquot of this suspension is added to 90 microliter of the vehicle or various concentrations of the test drug and preincubated for 10 minutes at room temperature.
Substantially the same procedure is used as described above in Section C of the Procedure used for determining the inhibition of acetylcholinsterase activity.

yohimbine toxicity = experiment: animal or person; assay type: in vivo, mice; details: mice, oral, 80 mg/kg
Protocol: The potentiation of yohimbine toxicity is considered an additional test for screening antidepressant drugs. The method used in this invention is as follows:
Male mice weighing 20 to 30 grams are used. They are housed under standard laboratory conditions with free access to food and water. Compounds are dissolved in distilled water and a suitable surfactant is added in case of poor solubility. Yohimbine hydrochloride is dissolved in distilled water as well. Both compound and yohimbine are administered in a volume of […].
Compounds and vehicle are administered orally 60 minutes prior to a sublethal dose (30 mg/kg s.c.) of yohimbine hydrochloride which alone causes death in about […] of mice (4 out of 400). Ten mice per group are then placed in plastic cages (26×10×16 cm) with food and water available ad libitum. Mortality rate is assessed 18 hours postdosing. ED50 is defined as dose of drug causing death in 5/10 mice and is calculated by probit analysis.

norepinephrine uptake [3] = assay type: biochemical; details: rat brain synaptosomes, 50 nM 3H-NE, 37° C., 5 min; read-out: Reuptake Inhibition of neurotransmitters, Norepinephrine
Acute toxicity (LD50) = assay type: in vivo; details: in vivo, ip, death within 24 hours
Protocol: LD50 is determined by the dose (mg/kg) at which 50% of the test animals die within 24 hours. In many cases this dose is an approximation.

[4] = test system: tetrabenazine-induced ptosis; experiment: Prevention of Tetrabenazine-Induced Ptosis In Mice (TBZ); assay type: in vivo; details: 60 mg/kg
Excerpt: Tetrabenazine (TBZ) induces behavioral depression with concomitant ptosis in mice similar to reserpine. Antidepressant compounds, both monoamineoxidase inhibitors and tricyclics, are known to prevent or antagonize these effects and the degree of antagonism correlates with clinical efficacy. The prevention of TBZ-induced ptosis in mice is used as a preliminary screen for possible antidepressant activity. The method used in this invention is as follows:
Male mice weighing 20 to 30 grams are used in test groups of five subjects. All compounds are dissolved or suspended with a suitable surfactant in distilled water and administered in volumes of 10 ml/kg of body weight. TBZ solution is made from the methanesulfonate salt and the concentration is adjusted to enable administration of 60 mg/kg of base by intraperitoneal (i.p.) injection.
The pretreatment time is measured from the time of dosing to observation. Therefore, when a […] pretreat is utilized, drug and TBZ are given simultaneously. A control group receives solvent and TBZ at intervals identical to drug group. For a primary screen, the drug is administered i.p. and a group size of five is utilized. Eight animals/group are used for a dose range.
Thirty minutes after TBZ, the subjects are placed in individual plastic containers (10.5×8×6 inches) in the presence of white noise and one minute after the transfer, they are scored for ptosis on the following scale: Eyes closed=4, eyes 3/4 closed=3, eyes 1/2 closed=2, eyes 1/4 closed=1, eyes open=0. The total score for each group of five in a primary screen will, therefore, be from 0 to 20 and these scores are used as indications of drug activity.
The vehicle control group score is used as a determinant of the validity of each test. If the control score is less than 17, the results are discarded and the test repeated. The calculation of percent inhibition of ptosis is: [formula]
Linear regression analysis is used to estimate ED50 values and 95% confidence intervals.

[5] = test system: scopolamine-induced memory deficit; experiment: Dark Avoidance Assay (scopolamine induced memory deficit reversal); assay type: in vivo, mice; details: Mus musculus, sc, 24 h, read-out: % of Animals with Scopolamine Induced Memory Deficit Reversal
Protocol: In this assay mice are tested for their ability to remember an unpleasant stimulus for a period of 24 hours. A mouse is placed in a chamber that contains a dark compartment; a strong incandescent light drives it to the dark compartment, where an electric shock is administered through metal plates on the floor. The animal is removed from the testing apparatus and tested again, 24 hours later, for the ability to remember the electric shock.
If scopolamine, an anticholinergic that is known to cause memory impairment, is administered before an animal's initial exposure to the test chamber, the animal re-enters the dark compartment shortly after being placed in the test chamber 24 hours later. This effect of scopolamine is blocked by an active test compound, resulting in a greater interval before re-entry into the dark compartment.
The results for an active compound are expressed as the percent of a group of animals in which the effect of scopolamine is blocked, as manifested by an increased interval between being placed in the test chamber and re-entering the dark compartment.

[6] = biological target: T2, butyrylcholinesterase (Serum AChE); details: background statement; cited from earlier work
butyrylcholinesterase = details: ex vivo; cited from earlier work
[7] = biological target: T1, acetylcholinesterase (Brain AChE); details: background statement; brain vs serum AChE; cited from earlier work
norepinephrine uptake [8] = details: background statement; cited from earlier work

T2 sequence (P06276 29-602): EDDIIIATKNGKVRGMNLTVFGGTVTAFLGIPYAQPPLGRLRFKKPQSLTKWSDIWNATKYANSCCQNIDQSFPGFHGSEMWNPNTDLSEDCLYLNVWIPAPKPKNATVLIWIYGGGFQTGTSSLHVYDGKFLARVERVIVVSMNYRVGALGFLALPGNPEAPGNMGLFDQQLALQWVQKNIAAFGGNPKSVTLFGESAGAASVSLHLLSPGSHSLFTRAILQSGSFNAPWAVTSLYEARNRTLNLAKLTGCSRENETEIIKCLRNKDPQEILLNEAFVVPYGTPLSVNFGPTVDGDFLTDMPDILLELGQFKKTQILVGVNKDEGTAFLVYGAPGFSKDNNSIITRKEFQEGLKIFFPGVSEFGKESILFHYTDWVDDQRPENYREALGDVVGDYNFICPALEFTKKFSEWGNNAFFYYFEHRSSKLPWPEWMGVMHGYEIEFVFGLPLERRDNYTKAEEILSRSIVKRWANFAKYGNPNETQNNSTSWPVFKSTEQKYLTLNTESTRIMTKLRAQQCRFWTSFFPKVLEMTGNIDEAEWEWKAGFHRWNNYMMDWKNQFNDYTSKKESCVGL

CN1CC[C@@]2(C)c3cc(OC(=O)Nc4cccc(Cl)c4)ccc3N(C)[C@@H]12 [(3aS-cis)-1,2,3,3a,8,8a-Hexahydro-1,3a,8-trimethylpyrrolo[2,3-b]indol-5-ol,3-chlorophenyl carbamate ester]
IC50 [1]: 0.6 µM
IC50 [2]: > 1000 µM
% Inhibition, YTP (yohimbine toxicity): 63%
IC50 (norepinephrine uptake [3]): 1.8 µM
LD50 at 24 h (Acute toxicity (LD50)): > 80 mg/kg
% Inhibition, TBZ [4]: 45%
responders at 5 mg/kg [5]: 20%

CCN(CC)C(C)CN1c2ccccc2Sc2ccccc21 (centres unmarked) [Ethopropazine]
selectivity of inhibition of butyrylcholinesterase [6]: selective inhibitors of butyrylcholinesterase

CC(C)NP(=O)(NC(C)C)OP(=O)(NC(C)C)NC(C)C [ISO-OMPA, tetraisopropyl pyrophosphoramide]
cholinomimetic effects correlated with butyrylcholinesterase inhibition (butyrylcholinesterase): not correlated with any significant acute chloinomimetic effects
selectivity of inhibition of butyrylcholinesterase [6]: selective inhibitors of butyrylcholinesterase

CNC(=O)Oc1ccc2c(c1)[C@]1(C)CCN(C)[C@@H]1N2C [Physostigmine, (3aS-cis)-1,2,3,3a,8,8a-hexahydro-1,3a,8-trimethylpyrrolo[2,3-b]indol-5-ol, methyl carbamate ester, reference compound]
IC50 (norepinephrine uptake [3]): > 20 µM
LD50 at 24 h (Acute toxicity (LD50)): ~3 mg/kg
specificity of AChE inhibition [7]: an unspecific AChE inhibitor
responders at 0.31 mg/kg ([5]; mice, 0.31 mg/kg s.c.): 20%

COC(=O)[C@H]1[C@@H](OC(=O)c2ccccc2)C[C@@H]2CC[C@H]1N2C [cocaine]
inhibition of NE uptake (norepinephrine uptake [8]): potently inhibited

C[C@@H]1O[C@@H](O[C@H]2C[C@@H](O)[C@]3(CO)[C@H]4[C@H](O)C[C@]5(C)[C@@H](C6=CC(=O)OC6)CC[C@]5(O)[C@@H]4CC[C@]3(O)C2)[C@H](O)[C@H](O)[C@H]1O [ouabain]
inhibition of NE uptake (norepinephrine uptake [8]): inhibited

CC(COc1ccccc1)N(CCCl)Cc1ccccc1 (centres unmarked) [phenoxybenzamine]
inhibition of NE uptake (norepinephrine uptake [8]): inhibited
